Experimental data as given in article PMC8707700, “Ru(III) Complexes with Lonidamine-Modified Ligands” (International Journal of Molecular Sciences, 2021).
Read-outs that look alike come from different tables or passages of the source.

Legend:
[1] = Stability of Ru(III) complexes in phosphate buffer by UV-vis spectrophotometry; assay type: physicochemical; settings: 20 mM phosphate buffer pH 7.4, 100 mM NaCl, 37 °C; mean ± SD, three experiments
Protocol: The stability of Ru(III) complexes (15–20) was investigated in a solution resembling physiological conditions (20 mM of phosphate buffer, pH 7.4, and 100 mM of NaCl at 37 °C) by UV-vis spectrophotometry (Table 1). The half-transformation time t1/2 was calculated based on changes in the electronic absorption spectrum (Figure S1) and defined as the value of t at the Alin/2 point. ΔA(t) was plotted against λmax; the initial section was approximated as a linear function.
The stability of Ru(III) complexes was studied by electron absorption spectroscopy in 20 mM of phosphate buffer, pH 7.4, and 100 mM of NaCl. The working solution (2 mL, 200 μM complex) was prepared by diluting 10 μL of the original 40 mM solution in DMSO and 1.99 mL of phosphate buffer. UV-vis spectra were recorded every 60 s in the range of 280–600 nm at 37 °C. The half-transformation time was t1/2. For λmax, ΔA(t) was plotted, where ΔA = A0–Ai, an initial section, was approximated as a linear function. At ΔAline./2 point calculated as t = t1/2.

A549 = experiment: Antiproliferative activity, MTT assay; assay type: cell-based, human; settings: read-out: IC50, µM A549
Protocol: (§1) The antiproliferative activity of new ligands and complexes was determined against human cell lines, including colon adenocarcinoma SW480, breast adenocarcinoma MCF-7, lung adenocarcinoma A549, neuroblastoma SHSY5Y, and non-tumourigenic HaCaT (Table 4). In general, complexes were more cytotoxic compared to ligands, lonidamine, and, in some cases, cisplatin. […] We chose this compound and the synthetically accessible complex 16 for mechanistic studies.
(§2) The antiproliferative activity was studied by MTT assays as published previously. For flow cytometry studies, cells were plated into 6-well plates (Eppendorf, Germany; 4 × 10^5 cells in 2 mL of DMEM) and incubated for 24 h. Solutions of complexes in DMSO were prepared immediately prior to the day of the experiments. Cells were treated with either 20 µM of cisplatin, 50 µM of 16, or 20 µM of 20. Concentrations corresponded to two-fold IC50 values based on MTT assays. Cells were incubated for 24 h, pooled, washed with cold PBS, and resuspended in DMEM. Aliquots of cells were processed as recommended in the Muse Annexin V&Dead Cell Kit or Muse Caspase-3/7 Kit (Luminex). Measurements were carried out on a Muse Cell Analyser, Luminex corp., TX, USA.

MCF-7 = experiment: Antiproliferative activity, MTT assay; assay type: cell-based, human; settings: read-out: IC50, µM MCF-7
Protocol: as §1, §2

SH-SY5Y = experiment: Antiproliferative activity, MTT assay; assay type: cell-based, human; settings: 72 h exposure, mean ± SD
Protocol: as §1, §2

SW480 = experiment: Antiproliferative activity, MTT assay; assay type: cell-based, human; settings: read-out: IC50, µM SW480
Protocol: as §1, §2

[2] = Cyclic voltammetry (redox potentials); assay type: physicochemical; settings: Pt and GC electrodes, CH3CN and CH2Cl2, any applied potential
Protocol: The redox behaviour of ligand 10 and complexes 15–20 was studied on Pt and glassy carbon (GC) electrodes in CH3CN and CH2Cl2.
All electrochemical measurements were carried out under argon at room temperature. Cyclic voltammetry (CV) experiments were performed in KO264 PAR three-electrode microcells in CH3CN solution with 0.05 M of Bu4NBF4 as a supporting electrolyte using a IPC-Win potentiostat. The number of transferred electrons was determined by comparing to the height of the […] wave for the same concentration. A glassy carbon (GC) working electrode (diameter 2 mm), a platinum wire auxiliary electrode, and an aqueous Ag/AgCl/KCl (sat.) reference electrode was used. Solvents were routinely distilled and dried prior to use.

HaCaT = experiment: Antiproliferative activity, MTT assay; assay type: cell-based, human; settings: read-out: IC50 HaCaT
Protocol: as §1, §2

[3] = Lipophilicity, shake-flask method water/n-octanol; assay type: physicochemical; settings: UV-vis, mean ± SD
Protocol: The lipophilicity of complexes 15–20 was studied using a standard shake-flask method in a mixture of water/n-octanol. For the quantification of compounds in the water phase, UV-vis spectrophotometry was used. […] Among other complexes, as expected, 20 was the most lipophilic (Table 1).
N-octanol was saturated with water and with water saturated with n-octanol; mixture400 mL of n-octanol (water) and 100 mL of water (n-octanol) was stirred for 24 h; and then fractions were separated. The sample of the complex was dissolved in n-octanol and a series of solutions in octanol (300, 250, 3 × 200, 150, 100, and 50 μM) was prepared. Absorption spectra were recorded and the calibration curve for maximum absorption was plotted. From 200 μM solutions, the mixtures with water were prepared (1:1, 1:2, 2:1 v/v) and shaken for 15 min. The organic phase was separated by centrifugation. The concentration of the complex in n-octanol was determined from the calibration curve and lipophilicity (logP) was calculated as log P = log [(C0–Caq)/Caq].

HCT116 cells = experiment: Annexin V/7-AAD flow cytometry (Muse Annexin V & Dead Cell Kit); assay type: cell-based; settings: HCT116, 24 h, 2xIC50; one representative experiment
Protocol: Mechanisms of cell death, that is, Annexin V/7-AAD reactivity and caspase 3/7 activation, were determined for 16 and 20 in HCT116 cells using the Muse® Annexin V & Dead Cell Kit (Luminex corp., Austin, TX, USA) and flow cytometry. Cells were incubated with 16, 20, or cisplatin (reference drug) for 24 h at concentrations corresponding to 2xIC50 values (obtained in MTT assays; Table 4). The percentages of Annexin V-positive cells in response to 16 and 20 were higher than cisplatin (Figure 8). Complex 20 with the C12 linker induced Annexin V positivity slightly more efficiently than 16 with the C3 linker (27.4 ± 2.1% vs. 19.7 ± 0.6%).
as §2

Compound | t1/2 (half-transformation time) [1] [min] | IC50 (A549; MTT, 72 h exposure, mean ± SD) [µM] | IC50 (MCF-7; MTT, 72 h exposure, mean ± SD) [µM] | IC50 (SH-SY5Y) [µM] | IC50 (SW480; MTT, 72 h exposure, mean ± SD) [µM] | IC50 (A549; Homo sapiens, A549, 72 h) [µM] | IC50 (HaCaT; Homo sapiens, HaCaT, 72 h) [µM] | IC50 (MCF-7; Homo sapiens, MCF7, 72 h) [µM] | IC50 (SW480; Homo sapiens, SW480, 72 h) [µM] | melting point [°C] | other results
Na[trans-Ru(DMSO)(C26H29Cl2N5O)Cl4] [Compound 19] | 23.17 ± 1.17 | 5.9 ± 2.6 | 17.1 ± 0.3 | 2.64 ± 1.5 | 9.3 ± 0.1 |  |  |  |  |  | 
O=C(NCCCn1ccnc1)c1nn(Cc2ccc(Cl)cc2Cl)c2ccccc12 [Compound 10, N-(3-(1H-Imidazol-1-yl)propyl)-1-(2,4-dichlorobenzyl)-1H-indazole-3-carboxamide] |  |  |  |  |  | > 90 | 39 ± 4 | > 90 | > 90 | 121 to 122 | redox transitions of the ligand [2]: redox transitions were not observed
Na[trans-Ru(DMSO)(C24H25Cl2N5O)Cl4] [Compound 18] | 10.8 ± 0.5 | 12.9 ± 1 | 22 ± 0.7 | 5.1 ± 2.5 | 19.6 ± 3.9 |  |  |  |  |  | Log P [3]: 0.6 ± 0.1
O=C(O)c1nn(Cc2ccc(Cl)cc2Cl)c2ccccc12 [lonidamine, 1-(2,4-dichlorobenzyl)-1H-indazole-3-carboxylic acid] |  |  |  |  |  |  |  |  |  |  | IC50 (A549; Homo sapiens, A549, MTT, 72 h exposure, mean ± SD): > 90 µM; IC50 (HaCaT; Homo sapiens, HaCaT, MTT, 72 h exposure, non-tumourigenic cells, mean ± SD): 3 ± 1 µM; IC50 (MCF-7; Homo sapiens, MCF7, MTT, 72 h exposure, mean ± SD): 30 ± 10 µM; IC50 (SH-SY5Y; Homo sapiens, SH-SY5Y): > 30 µM; IC50 (SW480; Homo sapiens, SW480, MTT, 72 h exposure, mean ± SD): > 90 µM
O=C(NCCCCCCCCCCCCn1ccnc1)c1nn(Cc2ccc(Cl)cc2Cl)c2ccccc12 [Compound 14, N-(12-(1H-Imidazol-1-yl)dodecyl)-1-(2,4-dichlorobenzyl)-1H-indazole-3-carboxamide] |  |  |  |  |  | 15 ± 2.2 |  | 20.8 ± 4.7 | 8.4 ± 1.6 | 86 to 88 | 
O=C(NCCn1ccnc1)c1nn(Cc2ccc(Cl)cc2Cl)c2ccccc12 [Compound 9, N-(2-(1H-Imidazol-1-yl)ethyl)-1-(2,4-dichlorobenzyl)-1H-indazole-3-carboxamide] |  |  |  |  |  | 50 ± 16 | 23 ± 2 | 35 ± 6 | 48 ± 10 | 120 to 121 | 
Na[trans-Ru(DMSO)(C22H21Cl2N5O)Cl4] [Compound 17] | 6 ± 0.333 | > 30 | > 30 | 27.7 ± 3.3 | 21 ± 1.8 |  |  |  |  |  | 
N.N.[Cl][Pt][Cl] [cisplatin, reference compound] |  | 23 ± 6.5 | > 30 | 9.5 ± 0.1 | 21.7 ± 0.5 |  |  |  |  |  | IC50 (HaCaT; MTT, 72 h exposure, non-tumourigenic cells, mean ± SD): 10 ± 5 µM; early apoptosis (Annexin V/7-AAD) (HCT116 cells): 4%; late apoptosis (Annexin V/7-AAD) (HCT116 cells): 8%; live cells (Annexin V/7-AAD) (HCT116 cells): 88%; necrosis (Annexin V/7-AAD) (HCT116 cells): 0%
O=C(NCCCCCCn1ccnc1)c1nn(Cc2ccc(Cl)cc2Cl)c2ccccc12 [Compound 12, N-(6-(1H-Imidazol-1-yl)hexyl)-1-(2,4-dichlorobenzyl)-1H-indazole-3-carboxamide] |  |  |  |  |  | 24 ± 10 | 40 ± 4 | 17 ± 2.5 | 16 ± 6 |  | 
O=C(NCCCCn1ccnc1)c1nn(Cc2ccc(Cl)cc2Cl)c2ccccc12 [Compound 11, N-(4-(1H-Imidazol-1-yl)butyl)-1-(2,4-dichlorobenzyl)-1H-indazole-3-carboxamide] |  |  |  |  |  | 25 ± 7 | 45 ± 3 | 22 ± 6 | 28 ± 8 | 98 to 100 | 
O=C(NCCCCCCCCn1ccnc1)c1nn(Cc2ccc(Cl)cc2Cl)c2ccccc12 [Compound 13, N-(8-(1H-Imidazol-1-yl)octyl)-1-(2,4-dichlorobenzyl)-1H-indazole-3-carboxamide] |  |  |  |  |  | 15 ± 6 | 45 ± 2 | 10 ± 2 | > 90 |  | 
Na[trans-Ru(DMSO)(C20H17Cl2N5O)Cl4] [Compound 15] | 6 ± 0.333 | > 30 | 20.4 ± 0.1 | 25.8 ± 4.5 | 21.4 ± 1.8 |  |  |  |  |  | 
